{
  "source": "patent US7608630B2",
  "about": "“Marasmius androsaceus L.es Fr extract, piperidone derivative, and their use for the preparation of hypertensives” (Hainan Yangpu New Special Pharmaceutical Co., Ltd., priority 2004, dated 2009)",
  "key": {"[1]": {"system": "ileum smooth muscle of guinea pig", "assay": "Effects on ileum smooth muscle of guinea pig (automatic rhythmic contraction of isolated ileum section)", "procedure": "The section was clamped at its both ends with frog heart clips, and placed in a perfusion tank with the lower end being fixed at the bottom of the tank and the top end being connected by a thread to a tensile transducer of a two-way electrophysiolograph, so that the automatic rhythmic contraction of the ileum section was recorded. The Tai's nutrient solution in the tank was kept at a temperature of 35° C., into which pure […] was bubbled. […] The normal contraction curve of the ileum section was firstly recorded using isoprenaline as a positive control."}, "[2]": {"system": "aorta smooth muscle of rabbit", "assay": "Effects on aorta of rabbit (contraction of isolated aorta section caused by adrenalin)", "parameters": "species or system New Zealand rabbit", "procedure": "A New Zealand rabbit was beheaded and unconscious. After thoracotomy, its thoracic aorta was quickly taken out, and quickly placed in and flushed with a pre-cooled LOCK's solution (which comprised of 1000 ml water, 9 g NaCl, 0.35 g KCl, 0.35 g MgSO4.7H2O, 0.16 g KH2PO4, and 1 g NaHCO3) to remove bloodiness. The connective tissue outside the blood vessel was carefully cut off, and an aorta section of 2-3 mm wide at an angle of 45° relative to the vessel was taken for use in the following test.\nThe aorta section of 2 cm long was clamped at its both ends with frog heart clips, and put in a thermostatic perfusion tank of 38° C. with the lower end being fixed at the bottom of the tank and the top end being connected by a thread to a tensile transducer of a two-way electrophysiolograph. Oxygen was bubbled to the solution in the perfusion tank, and the contraction force of the aorta section was recorded after balancing it in the solution for 80 min. During which, the LOCK's solution was changed once per 20 min. After adding 1.2×10^−6 mg/ml adrenalin to the solution, the contraction curve of the aorta section was recorded."}, "[3]": {"system": "blood pressure of SHR rat", "assay": "Reduction of blood pressure of anesthetized SHR rat", "type": "in vivo, spontaneously hypertensive rat (SHR)", "details": "for Diastolic pressure / Systolic pressure: 10 mg/kg intravenous", "procedure": "(§1) A spontaneously hypertensive rat (SHR) was anesthetized with 40 mg/ml pentobarbital, and fixed by its back on an experimental stand. The skin at its neck was cut open after removing hair, and thereafter the right common carotid artery was separated with its proximal end being clamped by a artery clamp and its axifugal end being ligated by a thread. A V-shape cut was made with scissors at the axifugal end, into which an arterial cannula filled with heparin physiological saline was inserted. The arterial cannula was connected with a blood pressure transducer, and then the blood pressure transducer was connected to a computer-controlled three-way physiological-pharmacological recorder. The right femoral vein of the rat was separated and intubated for the injection of a drug. When the blood pressure became stable (i.e., the blood pressure contraction curve became straight), the rat was administered by intravenous route."}, "[4]": {"system": "blood pressure of cats", "assay": "Reduction of blood pressure of cat", "type": "in vivo", "details": "for Average Diastolic pressure / Average Systolic pressure / Diastolic pressure, Animal 1-4 individually / Systolic pressure, Animal 1-4 individually: cats, 5 mg/kg iv; for Diastolic pressure, Animal 1-4 individually / Systolic pressure, Animal 1-4 individually: 5 mg/kg", "procedure": "as §1\nFive cats of 2.5-3.2 kg were administered orally and intravenously respectively according to the method in Example 8, and then their systolic pressure and diastolic pressure were determined using normal cats non-administered as a control group."}, "[5]": {"details": "concentration range 5×10^−4 to 10×10^−2 mg/ml"}, "[6]": {"details": "SHR rat, 5 min after administration"}, "[7]": {"details": "SHR rat, 60 min after administration"}, "[8]": {"details": "SHR rat, 120 min after administration"}, "[9]": {"details": "SHR rat, 240 min after administration"}},
  "note": "Several values for one entry are separate records, joined by “and”; a condition that tells them apart may be missing. Equal entries are not always repeated.",
  "data": [
    {"smiles": "CC1(C)CNCC(C)(C)C1=O", "note": "[Compound of formula II, 3,3,5,5-tetramethyl-4-piperidone]", "values": [
      {"measurement": "Relaxation Time", "setting": "[1]; concentration 1 × 10^−4 mg/ml", "value": 7, "unit": "h"},
      {"measurement": "Time of taking effect", "setting": "[1]; concentration 1 × 10^−4 mg/ml", "value": 2, "unit": "min"},
      {"measurement": "inhibition of the automatic rhythmic contraction of ileum section", "setting": "[1]; [5]", "value": "inhibit the automatic rhythmic contraction of ileum section"},
      {"measurement": "inhibition of the automatic rhythmic contraction of the ileum section", "setting": "[1]; different concentrations", "value": "could inhibit the automatic rhythmic contraction of the ileum section"},
      {"measurement": "Time of taking effect", "setting": "[2]; concentration 1 × 10^−4 mg/ml", "value": 2, "unit": "min"},
      {"measurement": "Contraction force", "setting": "[2]; concentration 1 × 10^−4 mg/ml, 10 min, then adrenalin 1.2×10^−6 mg/ml, relative to original value", "value": 0.3},
      {"measurement": "reduction of the contraction of aorta section caused by adrenalin", "setting": "[2]; concentration range 5×10^−3-1×10^−4 mg/ml", "value": "could obviously reduce the contraction of aorta section caused by adrenalin"},
      {"measurement": "inhibition of the contraction of aorta smooth muscle caused by adrenalin", "setting": "[2]; [5]", "value": "inhibit the contraction of aorta smooth muscle of rabbit caused by adrenalin"},
      {"measurement": "contraction force resumed by adrenalin, fraction of the original value", "setting": "[2]; sample 10 min, then adrenalin 1.2×10^−6 mg/ml, stated for the three samples together", "value": "½-⅓"},
      {"measurement": "effect of reducing blood pressure", "setting": "[3]; 5-20 mg/kg, model of anesthetic rat", "value": "very obvious effect of reducing blood pressure"},
      {"measurement": "Diastolic pressure", "setting": "[3]; [6]", "value": "105 ± 11", "unit": "mm/Hg"},
      {"measurement": "Systolic pressure", "setting": "[3]; [6]", "value": "141 ± 9.2", "unit": "mm/Hg"},
      {"measurement": "Diastolic pressure", "setting": "[3]; [7]", "value": "84 ± 11", "unit": "mm/Hg"},
      {"measurement": "Systolic pressure", "setting": "[3]; [7]", "value": "120 ± 12", "unit": "mm/Hg"},
      {"measurement": "Diastolic pressure", "setting": "[3]; [8]", "value": "83 ± 21", "unit": "mm/Hg"},
      {"measurement": "Systolic pressure", "setting": "[3]; [8]", "value": "125 ± 14", "unit": "mm/Hg"},
      {"measurement": "Diastolic pressure", "setting": "[3]; [9]", "value": "110 ± 18", "unit": "mm/Hg"},
      {"measurement": "Systolic pressure", "setting": "[3]; [9]", "value": "163 ± 12", "unit": "mm/Hg"},
      {"measurement": "Diastolic pressure", "setting": "[3]; SHR rat, before administration", "value": "124 ± 12", "unit": "mm/Hg"},
      {"measurement": "Systolic pressure", "setting": "[3]; SHR rat, before administration", "value": "174 ± 11", "unit": "mm/Hg"},
      {"measurement": "reduction of systolic pressure and diastolic pressure", "setting": "[3]; SHR rat, dosage range 10-200 mg/kg, intravenous", "value": "could obviously reduce the systolic pressure and diastolic pressure of SHR rat"},
      {"measurement": "effect of reducing blood pressure", "setting": "[4]; 5-20 mg/kg, model of anesthetic cat", "value": "very obvious effect of reducing blood pressure"},
      {"measurement": "Average Diastolic pressure", "setting": "[4]; 10 min after administration", "value": 106, "unit": "mmHg"},
      {"measurement": "Average Systolic pressure", "setting": "[4]; 10 min after administration", "value": 135.5, "unit": "mmHg"},
      {"measurement": "Diastolic pressure, Animal 1-4 individually", "setting": "[4]; 10 min after administration", "value": "84 mmHg and 93 mmHg and 146 mmHg and 101 mmHg"},
      {"measurement": "Systolic pressure, Animal 1-4 individually", "setting": "[4]; 10 min after administration", "value": "100 mmHg and 110 mmHg and 182 mmHg and 150 mmHg"},
      {"measurement": "Average Diastolic pressure", "setting": "[4]; 20 min after administration", "value": 105.75, "unit": "mmHg"},
      {"measurement": "Average Systolic pressure", "setting": "[4]; 20 min after administration", "value": 139.75, "unit": "mmHg"},
      {"measurement": "Diastolic pressure, Animal 1-4 individually", "setting": "[4]; 20 min after administration", "value": "79 mmHg and 109 mmHg and 137 mmHg and 98 mmHg"},
      {"measurement": "Systolic pressure, Animal 1-4 individually", "setting": "[4]; 20 min after administration", "value": "111 mmHg and 126 mmHg and 172 mmHg and 150 mmHg"},
      {"measurement": "Average Diastolic pressure", "setting": "[4]; 30 min after administration", "value": 106.25, "unit": "mmHg"},
      {"measurement": "Average Systolic pressure", "setting": "[4]; 30 min after administration", "value": 141.25, "unit": "mmHg"},
      {"measurement": "Diastolic pressure, Animal 1-4 individually", "setting": "[4]; 30 min after administration", "value": "80 mmHg and 111 mmHg and 136 mmHg and 98 mmHg"},
      {"measurement": "Systolic pressure, Animal 1-4 individually", "setting": "[4]; 30 min after administration", "value": "119 mmHg and 137 mmHg and 173 mmHg and 136 mmHg"},
      {"measurement": "Average Diastolic pressure", "setting": "[4]; 40 min after administration", "value": 110.5, "unit": "mmHg"},
      {"measurement": "Average Systolic pressure", "setting": "[4]; 40 min after administration", "value": 144.5, "unit": "mmHg"},
      {"measurement": "Diastolic pressure, Animal 1-4 individually", "setting": "[4]; 40 min after administration", "value": "100 mmHg and 111 mmHg and 134 mmHg and 97 mmHg"},
      {"measurement": "Systolic pressure, Animal 1-4 individually", "setting": "[4]; 40 min after administration", "value": "134 mmHg and 137 mmHg and 172 mmHg and 135 mmHg"},
      {"measurement": "Average Diastolic pressure", "setting": "[4]; 50 min after administration", "value": 117, "unit": "mmHg"},
      {"measurement": "Average Systolic pressure", "setting": "[4]; 50 min after administration", "value": 152.25, "unit": "mmHg"},
      {"measurement": "Diastolic pressure, Animal 1-4 individually", "setting": "[4]; 50 min after administration", "value": "117 mmHg and 120 mmHg and 134 mmHg and 97 mmHg"},
      {"measurement": "Systolic pressure, Animal 1-4 individually", "setting": "[4]; 50 min after administration", "value": "156 mmHg and 147 mmHg and 171 mmHg and 135 mmHg"},
      {"measurement": "Average Diastolic pressure", "setting": "[4]; 60 min after administration", "value": 118.25, "unit": "mmHg"},
      {"measurement": "Average Systolic pressure", "setting": "[4]; 60 min after administration", "value": 158, "unit": "mmHg"},
      {"measurement": "Diastolic pressure, Animal 1-4 individually", "setting": "[4]; 60 min after administration", "value": "131 mmHg and 120 mmHg and 130 mmHg and 92 mmHg"},
      {"measurement": "Systolic pressure, Animal 1-4 individually", "setting": "[4]; 60 min after administration", "value": "174 mmHg (2×) and 142 mmHg (2×)"},
      {"measurement": "Average Diastolic pressure", "setting": "[4]; 90 min after administration", "value": 121.75, "unit": "mmHg"},
      {"measurement": "Average Systolic pressure", "setting": "[4]; 90 min after administration", "value": 164.5, "unit": "mmHg"},
      {"measurement": "Diastolic pressure, Animal 1-4 individually", "setting": "[4]; 90 min after administration", "value": "122 mmHg and 129 mmHg and 144 mmHg and 92 mmHg"},
      {"measurement": "Systolic pressure, Animal 1-4 individually", "setting": "[4]; 90 min after administration", "value": "170 mmHg and 167 mmHg and 178 mmHg and 143 mmHg"},
      {"measurement": "Average Diastolic pressure", "setting": "[4]; 120 min after administration", "value": 124, "unit": "mmHg"},
      {"measurement": "Average Systolic pressure", "setting": "[4]; 120 min after administration", "value": 174.5, "unit": "mmHg"},
      {"measurement": "Diastolic pressure, Animal 1-4 individually", "setting": "[4]; 120 min after administration", "value": "123 mmHg and 129 mmHg and 148 mmHg and 96 mmHg"},
      {"measurement": "Systolic pressure, Animal 1-4 individually", "setting": "[4]; 120 min after administration", "value": "182 mmHg and 167 mmHg and 202 mmHg and 147 mmHg"},
      {"measurement": "Average Diastolic pressure", "setting": "[4]; 150 min after administration", "value": 127.5, "unit": "mmHg"},
      {"measurement": "Average Systolic pressure", "setting": "[4]; 150 min after administration", "value": 177, "unit": "mmHg"},
      {"measurement": "Diastolic pressure, Animal 1-4 individually", "setting": "[4]; 150 min after administration", "value": "124 mmHg and 140 mmHg and 148 mmHg and 98 mmHg"}
    ]}
  ]
}
